≈ marks a conversion by molar mass, not a printed value. Calls of active or inactive are those of the source. The calls are words filed in the database; no cut-off is given here.

Experimental findings from ChEMBL document CHEMBL4359861, “Design, synthesis and anti-inflammatory evaluation of 3-amide benzoic acid derivatives as novel P2Y14 receptor antagonists” (Eur J Med Chem, 2019) are described below.

For one series, the target named is T1, P2Y purinoceptor 14 (Homo sapiens, UniProt Q15391).
T1 sequence (Q15391 whole entry): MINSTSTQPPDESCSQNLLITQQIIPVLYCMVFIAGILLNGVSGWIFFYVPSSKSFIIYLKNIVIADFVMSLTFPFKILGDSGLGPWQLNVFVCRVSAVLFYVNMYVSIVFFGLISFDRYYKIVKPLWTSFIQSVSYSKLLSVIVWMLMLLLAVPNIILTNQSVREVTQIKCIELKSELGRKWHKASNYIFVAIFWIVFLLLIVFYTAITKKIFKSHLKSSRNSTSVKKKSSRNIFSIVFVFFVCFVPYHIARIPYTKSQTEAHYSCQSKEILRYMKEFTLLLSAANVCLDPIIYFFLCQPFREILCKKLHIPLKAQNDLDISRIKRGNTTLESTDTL
Nature of the series: Antagonist activity at human P2Y14R stably expressed in human forskolin treated THP1 cells assessed as reduction in P2Y14R agonist UDPG-induced inhibition of cAMP production incubated for 15 mins by competitive enzyme-linked immunoassay. It counts as functional, cell-based.

In series [1] the test system is THP-1. Nature of the series: Inhibition of inflammasome in human THP1 cells assessed as reversal of MSU-induced increase in NLRP3 protein level at 10 uM pretreated for 1 hr followed by MSU treatment and measured after 12 hrs by Western blot analysis. The format is functional, cell-based.
The test system of series [2] is THP-1. Nature of the series: Inhibition of pyroptosis in human THP1 cells assessed as inhibition of MSU-induced increase in IL-1beta level at 10 uM by ELISA. The format is functional, cell-based.
The test system of series [3] is THP-1. Put plainly: Inhibition of pyroptosis in human THP1 cells assessed as inhibition of MSU-induced increase in caspase1 level at 10 uM pretreated for 1 hr followed by MSU treatment and measured after 12 hrs by PI staining based flow cytometric analysis. It counts as functional, cell-based.
The test system of series [4] is THP-1. Nature of the series: Inhibition of inflammasome in human THP1 cells assessed as reversal of MSU-induced increase in caspase1 p20 protein level at 10 uM pretreated for 1 hr followed by MSU treatment and measured after 12 hrs by Western blot analysis. It counts as functional, cell-based.
Series [5] has as its system THP-1. Nature of the series: Inhibition of inflammasome in human THP1 cells assessed as reversal of MSU-induced co-localization of NLRP3 at 10 uM pretreated for 1 hr followed by MSU treatment and measured after 12 hrs by DAPI staining based confocal laser scanning microscopic method. It counts as functional, cell-based.
The nature of series [6]: Solubility of compound in pH 7.4 PBS buffer vortex for 1 min followed by 10 mins sonication and further incubated for overnight under shaking condition by UV-vis absorption spectrometric method. The format is physicochemical.
Series [7] has as its system THP-1. Nature of the series: Inhibition of inflammasome in human THP1 cells assessed as reversal of MSU-induced increase in ASC protein level at 10 uM pretreated for 1 hr followed by MSU treatment and measured after 12 hrs by Western blot analysis. It counts as functional, cell-based.
Series [8] is described as follows: Ratio of solubility for test compound to solubility for PPTN. It counts as physicochemical.
The test system of series [9] is THP-1. Nature of the series: Inhibition of pyroptosis in human THP1 cells assessed as inhibition of MSU-induced increase in caspase1 level at 5 to 20 uM pretreated for 1 hr followed by MSU treatment and measured after 12 hrs by PI staining based flow cytometric analysis. The format is functional, cell-based.
Series [10] relates to THP-1. Put plainly: Inhibition of pyroptosis in human THP1 cells assessed as inhibition of MSU-induced increase in IL-1beta level at 5 to 20 uM by ELISA. The format is functional, cell-based.
Series [11] relates to THP-1. Nature of the series: Inhibition of inflammasome in human THP1 cells assessed as reversal of MSU-induced increase in NLRP3 protein level at 5 to 20 uM pretreated for 1 hr followed by MSU treatment and measured after 12 hrs by Western blot analysis. It counts as functional, cell-based.
The subject of series [12] is THP-1. Nature of the series: Inhibition of inflammasome in human THP1 cells assessed as reversal of MSU-induced increase in caspase1 p20 protein level at 5 to 20 uM pretreated for 1 hr followed by MSU treatment and measured after 12 hrs by Western blot analysis. It counts as functional, cell-based.
Series [13] has as its system THP-1. Nature of the series: Inhibition of inflammasome in human THP1 cells assessed as reversal of MSU-induced co-localization of NLRP3 at 5 to 20 uM pretreated for 1 hr followed by MSU treatment and measured after 12 hrs by DAPI staining based confocal laser scanning microscopic method. It counts as functional, cell-based.
For series [14], the system named is THP-1. Nature of the series: Inhibition of inflammasome in human THP1 cells assessed as reversal of MSU-induced increase in ASC protein level at 5 to 20 uM pretreated for 1 hr followed by MSU treatment and measured after 12 hrs by Western blot analysis. The format is functional, cell-based.
The nature of series [15]: Microsomal stability in human liver microsomes assessed as parent compound remaining at 20 uM measured for 10 to 120 mins in presence of NADPH by LC-MS/MS analysis. The format is ADME, Microsome.
Series [16] in a line: Microsomal stability in rat liver microsomes assessed as parent compound remaining at 20 uM measured for 10 to 120 mins in presence of NADPH by LC-MS/MS analysis. It counts as ADME, Microsome.
The target in series [17] is T2, P2Y purinoceptor 14 (Homo sapiens) (UniProt Q15391).
T2 sequence (whole entry): T1 sequence (Q15391 whole entry)
Put plainly: Inhibition of P2Y14 in human THP1 cells assessed as reversal of MSU-induced reduction in cAMP production at 5 to 20 uM pretreated for 1 hr followed by MSU treatment and measured after 12 hrs by ELISA. The format is functional, cell-based.

Consider `O=C(O)c1cc(NC(=O)c2ccncc2)cc(-c2ccc(C3CCNCC3)cc2)c1`, for which the 50% inhibitory concentration (IC50) at P2Y purinoceptor 14 was 3.17 nM.

Take `N#Cc1ccc(C(=O)Nc2cc(C(=O)O)cc(-c3ccc(C4CCNCC4)cc3)c2)cc1`: on P2Y purinoceptor 14, the IC50 came out at 4.54 nM.

Turning to `O=C(O)c1cc(NC(=O)c2cnccn2)cc(-c2ccc(C3CCNCC3)cc2)c1`, the half-inhibitory concentration (IC50) on P2Y purinoceptor 14 worked out at 4.35 nM.

As for `O=C(O)c1cc(NC(=O)c2ccc([N+](=O)[O-])cc2)cc(-c2ccc(C3CCNCC3)cc2)c1`, the 50% inhibitory concentration (IC50) on P2Y purinoceptor 14 turned out to be 5.06 nM.

`O=C(O)c1cc(-c2ccc(C3CCNCC3)cc2)c2ccc(-c3ccc(C(F)(F)F)cc3)cc2c1` [PPTN]: the inhibition result in the series on THP-1 [1], with THP-1 [2], in the series with THP-1 [3], in the series with THP-1 [4], in the series on THP-1 [5] and in the series with THP-1 [7] was “Active” throughout. For the same compound, the solubility (thermodynamic) in [6] was below 5 µg/mL.

As to `Cc1ccc(C(=O)Nc2cc(C(=O)O)cc(-c3ccc(C4CCNCC4)cc3)c2)cc1`, the Ratio in [8] is reported as above 100. Moreover, the inhibition entry with THP-1 [9], in the series with THP-1 [10], in the series with THP-1 [11], in the series on THP-1 [12], in the series on THP-1 [13] and in the series on THP-1 [14] was “Active” throughout. In series [17], the inhibition entry was “Active”. Besides, the IC50 at P2Y purinoceptor 14 was 1.77 nM. In addition, the half-life at 20 µM in [15] and in series [16] was above 1 h each time. The thermodynamic solubility in [6] was found to be 572 µg/mL (≈ 1380 µM).

Turning to `O=C(O)c1cc(NC(=O)c2ccccc2)cc(-c2ccc(C3CCNCC3)cc2)c1`, at P2Y purinoceptor 14, the IC50 came to 4.95 nM.
